In patent publication US8536215B2, “Pyrazole microbiocides” (Syngenta Crop Protection LLC, priority 2010, dated 2013):

Assays:
Botrytis cinerea = test: Action against Botrytis cinerea - fungal growth assay; format: cell-based; settings: 0.002% active ingredient, PDB broth, 24° C., photometric after 3-4 days
Procedure: (§1) Conidia of the fungus from cryogenic storage was directly mixed into nutrient broth (PDB potato dextrose broth). After placing a (DMSO) solution of the test compounds (0.002% active ingredient) into a microtiter plate (96-well format) the nutrient broth containing the fungal spores was added. The test plates were incubated at 24° C. and the inhibition of growth was measured photometrically after 3-4 days. The activity of a compound was expressed as fungal growth inhibition (0=no growth inhibition, ratings of 80% to 99% mean good to very good inhibition, 100%=complete inhibition).

[1] = tested on: Mycosphaerella arachidis (Cercospora arachidicola [Anamorph]); test: Action against Mycosphaerella arachidis (early leaf spot of groundnut) - fungal growth assay; format: cell-based; settings: 0.002% active ingredient, PDB broth, 24° C., photometric after 6-7 days
Procedure: as §1, with “storage were” for “storage was”, “after 6-7” for “after 3-4”

Rhizoctonia Solani = test: Action against Rhizoctonia solani - fungal growth assay; format: cell-based; settings: 0.002% active ingredient, PDB broth, 24° C., photometric after 3-4 days
Procedure: as §1, with “Mycelial fragments of a newly grown liquid culture” for “Conidia”, “were” for “from cryogenic storage was”

[2] = tested on: Monographella nivalis (Anamorph: Fusarium nivale, Microdochium nivale); test: Action against Monographella nivalis (snow mould) - fungal growth assay; format: cell-based; settings: 0.002% active ingredient, PDB broth, 24° C., photometric after 72 hrs
Procedure: as §1, with “storage were” for “storage was”, “a DMSO-solution” for “a (DMSO) solution”, “after 72 hrs” for “after 3-4 days. The activity of a compound was expressed as fungal growth inhibition”

Pyrenophora teres = test: Action against Pyrenophora teres (net blotch) on barley leaf segments, preventive; format: in vivo; settings: foliar, 96 h, 0.02% active ingredient sprayed on barley leaf segments, assessed 4 days after inoculation, read-out: preventive fungicidal activity (inhibition)
Procedure: (§2) Barley leaf segments were placed on agar in multiwell plates (24-well format) and sprayed with test solutions (0.02% active ingredient). After drying, the leaf disks were inoculated with a spore suspension of the fungus. After appropriate incubation the activity of a compound was assessed 4 days after inoculation as preventive fungicidal activity.

[3] = tested on: Erysiphe graminis f. sp. tritici; test: Action against Erysiphe graminis f. sp. tritici (wheat powdery mildew), wheat leaf segments, preventive; format: in vivo; settings: Blumeria graminis, foliar, 168 h; 0.02% active ingredient sprayed on wheat leaf segments, assessed 7 days after inoculation; read-out: preventive fungicidal activity (inhibition)
Procedure: as §2, with “Wheat leaf” for “Barley leaf”, “assessed 7” for “assessed 4”

Septoria tritici = test: Action against Septoria tritici - fungal growth assay; format: cell-based; settings: Zymoseptoria tritici; 0.002% active ingredient, PDB broth, 24° C., photometric after 72 hrs
Procedure: as §1, with “storage were” for “storage was”, “was determined” for “was measured”, “after 72 hrs.” for “after 3-4 days.”

Puccinia recondita [4] = test: Curative action against Puccinia recondita (brown rust) on wheat leaf segments; format: in vivo; settings: foliar, 0.02% active ingredient sprayed one day after inoculation of wheat leaf segments, assessed 8 days after inoculation, read-out: curative fungicidal activity (inhibition)
Procedure: Wheat leaf segments were placed on agar in multiwell plates (24-well format) and inoculated with a spore suspension of the fungus. One day after inoculation the leaf segments were sprayed with test solutions (0.02% active ingredient). After appropriate incubation the activity of a compound was assessed 8 days after inoculation as curative fungicidal activity.

Puccinia recondita [5] = test: Protective action against Puccinia recondita (brown rust) on wheat leaf segments; format: in vivo; settings: foliar, 192 h, 0.02% active ingredient sprayed on wheat leaf segments, assessed 8 days after inoculation, read-out: preventive fungicidal activity (inhibition)
Procedure: as §2, with “Wheat leaf” for “Barley leaf”, “assessed 8” for “assessed 4”

melting point | Compound | inhibition at 0.002 % strength (Botrytis cinerea) | inhibition at 0.002 % strength [1] | inhibition at 0.002 % strength (Rhizoctonia Solani) | inhibition at 0.002 % strength [2] | inhibition at 0.02 % strength (Pyrenophora teres) | inhibition at 0.02 % strength [3] | inhibition at 0.002 % strength (Septoria tritici) | inhibition at 0.02 % strength (Puccinia recondita [4]) | inhibition at 0.02 % strength (Puccinia recondita [5])
– | CON(C(=O)c1cn(C)nc1C(F)F)C(C)C1CCC(C)=CC1(C)C (single isomer, unassigned) [Compound 1.081 Diastereomer A, 3-difluoromethyl-1-methyl-1H-pyrazole-4-carboxylic acid methoxy-[1-(2,2,4-trimethyl-cyclohex-3-enyl)-ethyl]-amide] | ≥ 80% | – | – | – | – | – | – | – | –
– | CON(C(=O)c1cn(C)nc1C(F)F)C(C)C1CC=C(C)CC1 (stereo not drawn) [Compound 1.049] | ≥ 80% | ≥ 80% | ≥ 80% | ≥ 80% | ≥ 80% | ≥ 80% | ≥ 80% | – | –
95 to 105 °C | CON(C(=O)c1cn(C)nc1C(F)F)C(C)C1CCC(C)=CC1(C)C (stereo not drawn) [Compound 1.081, 3-difluoromethyl-1-methyl-1H-pyrazole-4-carboxylic acid methoxy-[1-(2,2,4-trimethyl-cyclohex-3-enyl)-ethyl]-amide] | ≥ 80% | ≥ 80% | ≥ 80% | ≥ 80% | ≥ 80% | ≥ 80% | ≥ 80% | ≥ 80% | ≥ 80%
